# Results: the supplement of paper PMC11208160
# Test: recombinant UMI read abundance after kanamycin selection (control-corrected) (log10(CPM+1)); higher = more efficient recombination; extreme values may be limits of the assay; sequences stand for … in AGTGCAGAGAAAATCGGCCAGTTTTCTCTGCCTGCAGTCCGCATGCCGTGGGACCCCTTGGGTTCTAACCTGTTGCCTAGATTTATGCAGCGGACTGCCTTTCTCCCAAAGTGATAAACCGG…AGGTTGGTTTCACT; site = the 11-nt donor
# How it was run: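 In a pooled Escherichia coli screen for the IS621 bridge recombinase, donor and donor-binding-loop pairs were each placed with a 12-nt UMI on a plasmid bearing a promoterless kanamycin gene. This library was co-electroporated with a target plasmid encoding a fixed target and T7-inducible recombinase, and cells were plated either on IPTG (0.07 mM) plus kanamycin or without selection, in two replicates each. Recombinant UMIs were PCR-amplified across the donor–target junction and sequenced, and counts were converted to CPM, averaged over replicates, scaled by control-derived factors and reported as log10(CPM+1).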
row,Sequence,recombinant UMI read abundance (log10)
1,CAATTCCCATGGACCGGTTTTCCCGGTAATCCGTATTTGCT (site CAATTCCCTAG),0.879
2,CAATTCCCATGGACCGGTTTTCCCGGTAATCCGTATTTGCT (site CAATTCCCTAT),1.61
3,CAATTCCCATGGACCGGTTTTCCCGGTAATCCGTATTTGCT (site CAATTCCCTCG),0.178
4,CAATTCCCATGGACCGGTTTTCCCGGTAATCCGTATTTGCT (site CAATTCCCTGG),0
5,CAATTCCCATGGACCGGTTTTCCCGGTAATCCGTATTTGCT (site CAATTCCCTTG),0.615
6,CAATTCCCATGGACCGGTTTTCCCGGTAATCCGTATTTGCT (site CAATTCGCTAG),0.00609
7,CAATTCCCATGGACCGGTTTTCCCGGTAATCCGTATTTGCT (site CAATTCTCTAG),2.13
8,CAATTCCCATGGACCGGTTTTCCCGGTAATCCGTATTTGCT (site CAATTGCCTAG),0
9,CAATTCCCATGGACCGGTTTTCCCGGTAATCCGTATTTGCT (site CAATTTCCTAG),0
10,CAATTCCCATGGACCGGTTTTCCCGGTAATCCGTATTTGCT (site CACTTCCCTAG),0.171
11,CAATTCCCATGGACCGGTTTTCCCGGTAATCCGTATTTGCT (site CAGTTCCCTAG),0
12,CAATTCCCATGGACCGGTTTTCCCGGTAATCCGTATTTGCT (site CATTTCCCTAG),0
13,CAATTCCCATGGACCGGTTTTCCCGGTAATCCGTATTTGCT (site CCATTCCCTAG),1.17
14,CAATTCCCATGGACCGGTTTTCCCGGTAATCCGTATTTGCT (site CGATTCCCTAG),0
15,CAATTCCCATGGACCGGTTTTCCCGGTAATCCGTATTTGCT (site CTATTCCCTAG),0
16,CAATTCCCATGGACCGGTTTTCCCGGTAATCCGTATTTGCT (site GAATTCCCTAG),0
17,CAATTCCCATGGACCGGTTTTCCCGGTAATCCGTATTTGCT (site TAATTCCCTAG),0.428

row,Sequence,recombinant UMI read abundance (log10)
1,CAATTCGCATGGACCGGTTTTCCCGGTAATCCGTATTTGCT (site CAATTCACTAG),1.08
2,CAATTCGCATGGACCGGTTTTCCCGGTAATCCGTATTTGCT (site CAATTCCCTAG),0
3,CAATTCGCATGGACCGGTTTTCCCGGTAATCCGTATTTGCT (site CAATTCGCTAG),0.564
4,CAATTCGCATGGACCGGTTTTCCCGGTAATCCGTATTTGCT (site CAATTCTCTAG),0
5,CAATTCTCATGGACCGGTTTTCCCGGTAATCCGTATTTGAA (site CAATACTCTTT),0.00453
6,CAATTCTCATGGACCGGTTTTCCCGGTAATCCGTATTTGAA (site CAATCCTCTTT),0.327
7,CAATTCTCATGGACCGGTTTTCCCGGTAATCCGTATTTGAA (site CAATGCTCTTT),0.0109
8,CAATTCTCATGGACCGGTTTTCCCGGTAATCCGTATTTGAA (site CAATTCTCTTT),2.5
9,CACAACGCATGGACCGGTTTTCCCGGTAATCCGTATTTGCA (site CACAACGCTTG),2.49
10,CACACCCCATGGACCGGTTTTCCCGGTAATCCGTATTTGCC (site CACACCCCTGG),1.91
11,CACACCTCATGGACCGGTTTTCCCGGTAATCCGTATTTGCC (site CACACCTCTGG),2.87
12,CACACCTCATGGACCGGTTTTCCCGGTAATCCGTATTTGCC (site CACCCCTCTGG),1.27
13,CACACCTCATGGACCGGTTTTCCCGGTAATCCGTATTTGCC (site CACGCCTCTGG),0
14,CACACCTCATGGACCGGTTTTCCCGGTAATCCGTATTTGCC (site CACTCCTCTGG),1.97
15,CACAGATCATGGACCGGTTTTCCCGGTAATCCGTATTTGCT (site CACAGATCTAG),2.32
16,CACAGCGCATGGACCGGTTTTCCCGGTAATCCGTATTTGTT (site CACAGCGCTAA),1.99
17,CACAGGTCATGGACCGGTTTTCCCGGTAATCCGTATTTGAT (site CACAGGTCTAT),2.14
